# In patent US7335359B2, “Glycosylated specificity exchangers” (Tripep AB, priority 2003, dated 2008):
# Test system: human Gal-alpha1,3-Gal-specific antibodies
# Assay: Glycosylated peptide competitive assay on Gal-BSA coated plates with human sera IB72 (FIG. 4)
# Type: binding
# Settings: positive control, mixed with human sera IB72
# Experimental: To further evaluate the ability of the glycosylated specificity exchangers to bind to a pathogen, a glycosylated peptide competitive assay was performed using the most reactive human sera (IB72). In brief, Gal-alpha1,3-Gal-labeled bovine serum albumin (Gal-BSA) was coated onto 96-well microplates in sodium carbonate buffer (pH: 9.6) at +4° C. overnight. Dilutions of human sera and dilutions of glyco-peptides (glycosylated HIV-specific ligand/receptor specificity exchangers or Gal-BSA) or non-glycosylated peptides (HIV-specific ligand/receptor specificity exchangers or BSA) were preincubated in phosphate-buffered saline (PBS) containing 1% bovine albumin, 2% goat serum and 0.05% Tween 20 at 37° C. for 1 h. The mixture was then added to the coated plates and incubated at 37° C. for 1 h, then washed 3 times with phosphate-buffered saline (PBS) containing 0.05% Tween 20 (pH: 7.4).
# Bound antibodies were indicated with goat anti-human polyvalent Ig, conjugated with alkaline phosphatase. The plates were incubated and washed as described above. Plates were developed with phosphatase substrate at room temperature for 30 min, stopped with 1 M NaOH. Optical density (OD) at 405 nm/650 nm was determined to quantify the inhibition. […] Thus, specificity exchangers that bind Gal-alpha1,3-Gal-specific antibodies had been generated. […]
substance,measurement,value
"Gal-alpha1,3-Gal-labeled bovine serum albumin [Gal-BSA]",inhibition of human antibody binding to Gal-BSA,100%
